In US12577250B2, “1,2,4-triazolone derivative as DHODH inhibitor, and preparation method therefor and use thereof” (WIGEN BIOMEDICINE TECHNOLOGY (SHANGHAI) CO., LTD., priority 2021, dated 2026):
Read-outs that look alike come from different tables or passages of the source. Values belong to the molecule of their own block, whether it stands above or below them.

Key:
[1] = molecular target: DHODH (Homo sapiens, UniProt Q02127); experiment: Assay against enzyme activity of DHODH (DCIP absorption at 600 nm); type: biochemical
Chain of DHODH (Q02127 whole entry): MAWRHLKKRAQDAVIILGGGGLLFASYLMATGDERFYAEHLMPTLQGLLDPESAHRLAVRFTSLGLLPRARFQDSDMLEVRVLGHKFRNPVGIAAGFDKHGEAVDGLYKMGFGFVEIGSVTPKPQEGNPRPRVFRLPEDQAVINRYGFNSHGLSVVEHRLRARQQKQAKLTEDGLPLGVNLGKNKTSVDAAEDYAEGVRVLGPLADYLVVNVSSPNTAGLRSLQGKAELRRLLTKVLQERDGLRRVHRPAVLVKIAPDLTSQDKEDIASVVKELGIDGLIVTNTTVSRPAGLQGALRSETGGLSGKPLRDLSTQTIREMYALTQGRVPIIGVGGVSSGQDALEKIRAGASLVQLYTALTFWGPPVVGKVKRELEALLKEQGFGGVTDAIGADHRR
Protocol: The enzyme activity of DHODH was assayed through a cascade reaction to determine its ability to catalyze the oxidation of a natural substrate DHO (dihydroorotic acid) to orotic acid while reducing coenzyme Q. The enzyme activity of DHODH was indirectly detected by assaying the ability of the coenzyme Q to reduce a chromogenic substrate DCIP. After the compound and an enzyme reaction mixture were incubated for 5 min, a reaction substrate DHO was added to start the reaction, and the enzyme activity was assayed by assaying the absorption at 600 nm to detect the DCIP exhaustion in a timed manner.

[2] = test system: THP-1 cells; experiment: Anti-proliferative activity on THP-1 cells (CellTiter-Lumi, 72 h); type: cell-based; conditions: read-out: Cell anti-proliferative activity IC50 THP-1
Protocol: (§1) THP-1 cells were seeded into a 384-well plate (Fisher 142762) at 3000 cells per well. The next day, serially diluted compounds were added, and 72 h after the addition, CellTiter-Lumi (Beyotime C0068XL) was added to measure the ATP content in the cells. The growth of the cells was evaluated, and IC50 of the compounds against cell growth was calculated.

[3] = test system: MV-4-11 cells; experiment: Anti-proliferative activity on MV-4-11 cells (CellTiter-Lumi, 72 h); type: cell-based; conditions: read-out: Cell anti-proliferative activity IC50 MV-4-11
Protocol: as §1, with “MV-4-11” for “THP-1”

[4] = Pharmacokinetic evaluation in mice; type: in vivo, male ICR mice
Protocol: The compounds were administered by intravenous injection at a dose of 2 mg/kg and oral gavage at a dose of 10 mg/kg (0.5% CMC-Na suspension). 15 male ICR mice were selected, and each mouse was subjected to blood collection at 3 discrete time points, with 3 mice per time point. The time points of sampling were as follows: before administration, and 5 min, 15 min, 30 min, 1 h, 3 h, 5 h, 8 h, 12 h and 24 h after administration. 80 μL of blood was collected from the orbits or hearts of the mice at each time point after administration. All whole blood samples were collected in tubes containing EDTAK2 and centrifuged (1500-1600 rmp/min) at 4° C. for 10 min to isolate plasma, which was then stored in a refrigerator at −90° C. to −60° C. for sample analysis. The compound concentration in the plasma was determined by liquid chromatography-tandem mass spectrometry, and the corresponding pharmacokinetic parameters were obtained according to a plasma concentration-time curve.

[5] = Homo sapiens, MV4-11, 72 h, class symbols
[6] = male, ICR, mouse, plasma, iv, 2 mg/kg
[7] = male, ICR, mouse, plasma, po, 10 mg/kg (0.5% CMC-Na suspension)

Molecule: C[C@H](Oc1cc(-n2nc3n(c2=O)CCCC2(CC2)C3)c(F)cc1C(=O)Nc1c(F)cccc1Cl)C(F)(F)F [Compound 51]
IC50 [1]: < 50 nM
IC50 ([2]; Homo sapiens): 47.6 nM
IC50 ([3]; Homo sapiens, MV4-11, 72 h): 5.45 nM

Molecule: C[C@H](Oc1cc(-n2nc3n(c2=O)CCC2(CC2)C3)c(F)cc1C(=O)Nc1ccc(F)cc1Cl)C(F)(F)F [Compound 21]
IC50 [1]: < 50 nM
IC50 [3, 5]: ≤ 50 nM

Molecule: CCc1ccccc1NC(=O)c1cc(F)c(-n2nc3n(c2=O)CCC2(CC2)C3)cc1O[C@@H](C)C(F)(F)F [Compound 6]
IC50 [1]: < 50 nM
IC50 [3, 5]: ≤ 50 nM

Molecule: C[C@H](Oc1cc(-n2nc3n(c2=O)CCC2(CC2)C3)c(F)cc1C(=O)Nc1c(F)cccc1Cl)C(F)(F)F [Compound 1, (S)—N-(2-chloro-6-fluorophenyl)-5-fluoro-4-(3′-oxo-5′,6′-dihydro-3′H-spiro[cyclopropane-1,7-[1,2,4]triazolo[4,3-α]pyridin]-2′(8′H)-yl)-2-((1,1,1-trifluoropropan-2-yl)oxy)benzamide]
IC50 [1]: < 50 nM
IC50 ([2]; Homo sapiens): 27.6 nM
IC50 ([3]; Homo sapiens, MV4-11, 72 h): 1.27 nM
AUC(0-t) [4, 6]: 2530 ng·h/mL
clearance [4, 6]: 13.2 mL/min/kg
half-life [4, 6]: 1.79 h
Vd ([4]; male, ICR, mouse, plasma, iv, 2 mg/kg, read-out: Vss): 1.66 L/kg
AUC(0-t) [4, 7]: 7780 ng·h/mL
Cmax [4, 7]: 2240 ng/mL
Tmax [4, 7]: 0.25 h
half-life [4, 7]: 2.07 h
oral bioavailability (in words) ([4]; po): good oral bioavailability
F ([4]; po 10 mg/kg vs iv 2 mg/kg): 61.7%

Now from value to molecule:

IC50 [1]: < 50 nM
IC50 ([2]; Homo sapiens): 24.5 nM
IC50 ([3]; Homo sapiens, MV4-11, 72 h): 0.51 nM
Molecule: C[C@H](Oc1nc(-n2nc3n(c2=O)CCC2(CC2)C3)c(F)cc1C(=O)Nc1c(F)cccc1Cl)C(F)(F)F [Compound 54, (S)—N-(2-chloro-6-fluorophenyl)-5-fluoro-4-(3′-oxo-5′,6′-dihydro-3′H-spiro[cyclopropane-1,7-[1,2,4]triazolo[4,3-α]pyridin]-2′(8′H)-yl)-2-((1,1,1-trifluoropropan-2-yl)oxy)benzamide]

IC50 [2]: 35.6 nM
IC50 [3]: 3.82 nM
Molecule: BAY-2402234 [reference compound]

IC50 [1]: < 50 nM
IC50 ([3]; Homo sapiens, MV4-11, 72 h): 1.97 nM
Molecule: CCC[C@H](C)Oc1nc(-n2nc3n(c2=O)CCC2(CC2)C3)c(F)cc1C(=O)Nc1c(F)cccc1Cl [Compound 56]
